Reference: article PMC8011931, “Identification, Structure–Activity Relationship, and Biological Characterization of 2,3,4,5-Tetrahydro-1H-pyrido[4,3-b]indoles as a Novel Class of CFTR Potentiators” (Journal of Medicinal Chemistry, 2020)
Converted amounts (≈) assume the structure as drawn.

Key:
[1] = Aqueous kinetic solubility assay; type: physicochemical; settings: PBS, pH 7.4; n = 3
Description: The aqueous kinetic solubility was determined from a 10 mM DMSO stock solution of test compound in PBS at pH 7.4. The study was performed by incubation of an aliquot of 10 mM DMSO stock solution in PBS (pH 7.4) at a target concentration of 250 μM (2.5% DMSO). The incubation was carried out under shaking at 25 °C for 24 h, followed by centrifugation at 21,100g for 30 min. The supernatant was further diluted (4:1) with CH3CN and the dissolved test compound was quantified by UV at 215 nm on a Waters ACQUITY UPLC/MS system consisting of an SQD mass spectrometer equipped with an electrospray ionization interface and a photodiode array detector. Electrospray ionization in the positive mode was used in the mass scan range of 100–500 Da. The PDA range was 210–400 nm. The analyses were run on an ACQUITY UPLC BEH C18 column (50 × 2.1 mm ID, particle size 1.7 μm) with a VanGuard BEH C18 precolumn (5 × 2.1 mm ID, particle size 1.7 μm) using 10 mM NH4OAc in H2O at pH 5 adjusted with AcOH (A) and 10 mM NH4OAc in CH3CN–H2O (95:5) at pH 5 (B) as the mobile phase.

[2] = Liver microsomal stability, phase I (NADPH), rat; type: in vitro ADME; settings: for half-life at 1 h, 4.6 µM / half-life at 4.6 μM: rat, liver microsomes, pH 7.5, 0.1% DMSO, n ≥ 3, read-out: rat LM_NADPH t1/2; for rat LM_NADPH parent compound remaining at the last time point (in parentheses): 4.6 μM, 60 min
Description: (§1) Phase I: 10 mM DMSO stock solution of the test compound was preincubated at 37 °C for 15 min with rat, dog, or human liver microsomes in 0.1 M Tris–HCl buffer (pH 7.5) with 10% DMSO. The final concentration was 4.6 μM. After preincubation, the cofactors (NADPH, G6P, G6PDH, and MgCl2 predissolved in 0.1 M Tris–HCl) were added to the incubation mixture and the incubation was continued at 37 °C for 1 h.
(§2) For both phase I and II studies: At each time point (0, 5, 15, 30, and 60 min), 30 μL of the incubation mixture was diluted with 200 μL of cold CH3CN spiked with 200 nM of an appropriate internal standard, followed by centrifugation at 3270g for 15 min. The supernatant was further diluted with H2O (1:1) for analysis. A reference incubation mixture (microsomes without cofactors) was prepared for each test compound and analyzed at t = 0 and 60 min in order to verify the compound’s stability in the matrix. The two time points were diluted as for the time points of the incubation mixture above. The supernatants were analyzed by LC/MS–MS on a Waters ACQUITY UPLC/MS TQD system consisting of a TQD (triple quadrupole detector) mass spectrometer equipped with an electrospray ionization interface and a photodiode array eλ detector. Electrospray ionization was applied in positive mode. Compound-dependent parameters as MRM transitions and collision energy were developed for each compound. The analyses were run on an ACQUITY UPLC BEH C18 (50 × 2.1 mm ID, particle size 1.7 μm) with a VanGuard BEH C18 precolumn (5 × 2.1 mm ID, particle size 1.7 μm) at 40 °C, using H2O + 0.1% HCOOH (A) and CH3CN + 0.1% HCOOH (B) as the mobile phase. The percentage of test compound remaining at each time point relative to t = 0 was calculated by the response factor on the basis of the internal standard peak area. The percentage of test compound versus time was plotted and fitted by GraphPad Prism (GraphPad Software, Version 5 for Windows, CA, USA, www.graphpad.com) to estimate the compound’s half-life (t1/2), which was reported as mean value along with the standard deviation (n = 3).

[3] = Liver microsomal stability, phase I (NADPH), dog; type: in vitro ADME; settings: for dog LM_NADPH parent compound remaining at the last time point (in parentheses): 4.6 μM, 60 min; for half-life at 4.6 μM: dog, liver microsomes, pH 7.5, 0.1% DMSO, n ≥ 3, read-out: dog LM_NADPH t1/2
Description: […] The final concentration was 4.6 μM. After preincubation, the cofactors (NADPH, G6P, G6PDH, and MgCl2 predissolved in 0.1 M Tris–HCl) were added to the incubation mixture and the incubation was continued at 37 °C for 1 h.
as §2

[4] = Liver microsomal stability, phase I (NADPH), human; type: in vitro ADME; settings: for half-life at 1 h, 4.6 µM / half-life at 4.6 μM: human, liver microsomes, pH 7.5, 0.1% DMSO, n ≥ 3, read-out: human LM_NADPH t1/2; for human LM_NADPH parent compound remaining at the last time point (in parentheses): 4.6 μM, 60 min
Description: as §1, §2

[5] = test system: HepG2 cells; test: HepG2 cell toxicity assay (CTG and MTT); type: cell-based; settings: at 20 μM, 24 h, CTG and MTT assays; percent of vehicle-treated controls
Description: In order to assess a possible liver toxicity liability, the selected analogues were also tested in HepG2 cells at two concentrations (2.0 and 20 μM) for 24 h, along with a reference compound (rotenone). A reduction of cell viability to less than 80% was set as the threshold for estimation of cytotoxicity.[42]
To increase the detection of drug-induced mitochondrial effects in a preclinical cell-based assay, HepG2 hepatocellular carcinoma cells (ATCC HB-8065) were forced to rely on mitochondrial oxidative phosphorylation rather than glycolysis by substituting galactose (10 mM) for glucose (25 mM) in the growth media (DMEM, Life Technologies).
High-glucose media: high-glucose DMEM (Invitrogen 11995-065) containing 25 mM glucose, 1.0 mM sodium pyruvate, supplemented with 5 mM N-(2-hydroxyethyl)piperazine-N′-(2-ethanesulfonic acid) (HEPES), and 10% FBS. Galactose media: DMEM deprived of glucose (Invitrogen 11966-025), supplemented with 10 mM galactose, 2.0 mM glutamine (6 mM final), 5.0 mM HEPES, 10% FBS, and 1.0 mM sodium pyruvate.
For the cytotoxicity assay, cells were plated at 20,000 cells/well in 100 μL of cell culture media in 96-well plates and allowed to grow overnight. The cells were treated for 24 h with 2.0 or 20 μM of each compound. All compounds were dissolved in DMSO with a stock concentration of 4 mM. The first dilution step of compounds was prepared in DMSO (200× stock solutions), while the second dilution step was carried out in a complete cell culture medium (5% DMSO). Of this dilution, 10 μL were added to the wells of the 96-well plate, with a final DMSO concentration of 0.5%. Rotenone, a well-known mitochondrial inhibitor, was used as a reference compound. After treatment, cellular viability was assessed by using two different assays, run on independent plates: the CellTiter-Glo (CTG) Luminescent Cell Viability Assay (Promega), which determines the number of viable cells based on the quantitation of the ATP present, and the thiazolyl blue tetrazolium […] (MTT) dye (Aldrich), which is converted to water-insoluble MTT formazan crystals by mitochondrial dehydrogenases of living cells. Each experimental condition (i.e., control, reference, and compounds’ doses) has been tested in three technical replicates.

COc1ccc2[nH]c3c(c2c1)CN(C(=O)c1cc(C(F)(F)F)[nH]n1)CC3 [Compound 3, (8-Methoxy-1,3,4,5-tetrahydropyrido[4,3-b]indol-2-yl)-[5-(trifluoromethyl)-1H-pyrazol-3-yl]methanone]
solubility kinetic at 24 h, 250 µM [1]: 237 ± 11 µM (≈ 86.3 µg/mL)
half-life at 1 h, 4.6 µM [2]: 30 ± 1 min
dog LM_NADPH parent compound remaining at the last time point (in parentheses) [3]: 68%
half-life at 4.6 μM [3]: > 60 min
half-life at 1 h, 4.6 µM [4]: 42 ± 11 min
HepG2 (% survival) [5]: >80%

O=C(c1cc(C(F)(F)F)[nH]n1)N1CCc2[nH]c3c(F)ccc(F)c3c2C1 [Compound 29, (6,9-Difluoro-1,3,4,5-tetrahydro-2H-pyrido[4,3-b]indol-2-yl)-(5-(trifluoromethyl)-1H-pyrazol-3-yl)methanone]
solubility kinetic at 24 h, 250 µM [1]: 36 ± 5 µM (≈ 13.3 µg/mL)
half-life at 1 h, 4.6 µM [2]: 50 ± 9 min
dog LM_NADPH parent compound remaining at the last time point (in parentheses) [3]: 93%
half-life at 4.6 μM [3]: > 60 min
human LM_NADPH parent compound remaining at the last time point (in parentheses) [4]: >60 (60) %
half-life at 4.6 μM [4]: > 60 min
HepG2 (% survival) [5]: >80%

O=C(c1cc(C(F)(F)F)[nH]n1)N1CCc2[nH]c3c(F)cccc3c2C1 [Compound 20, (6-Fluoro-1,3,4,5-tetrahydro-2H-pyrido[4,3-b]indol-2-yl)-(5-(trifluoromethyl)-1H-pyrazol-3-yl)methanone]
solubility kinetic at 24 h, 250 µM [1]: 9 ± 4 µM (≈ 3.17 µg/mL)
rat LM_NADPH parent compound remaining at the last time point (in parentheses) [2]: 64%
half-life at 4.6 μM [2]: > 60 min
dog LM_NADPH parent compound remaining at the last time point (in parentheses) [3]: 85%
half-life at 4.6 μM [3]: > 60 min
human LM_NADPH parent compound remaining at the last time point (in parentheses) [4]: 78%
half-life at 4.6 μM [4]: > 60 min
HepG2 (% survival) [5]: >80%

Cc1ccc(F)c2[nH]c3c(c12)CN(C(=O)c1cc(C(F)(F)F)[nH]n1)[C@H](C)C3 [Compound 39, (R)-(6-Fluoro-3,9-dimethyl-1,3,4,5-tetrahydro-2H-pyrido[4,3-b]indol-2-yl)-(5-(trifluoromethyl)-1H-pyrazol-3-yl)methanone]
solubility kinetic at 24 h [1]: < 1 µM
rat LM_NADPH parent compound remaining at the last time point (in parentheses) [2]: 70%
half-life at 4.6 μM [2]: > 60 min
dog LM_NADPH parent compound remaining at the last time point (in parentheses) [3]: 92%
half-life at 4.6 μM [3]: > 60 min
human LM_NADPH parent compound remaining at the last time point (in parentheses) [4]: 71%
half-life at 4.6 μM [4]: > 60 min
HepG2 (% survival) [5]: >80%

Cc1ccc(F)c2[nH]c3c(c12)CN(C(=O)c1cc(C(F)(F)F)[nH]n1)CC3 [Compound 30, (6-Fluoro-9-methyl-1,3,4,5-tetrahydro-2H-pyrido[4,3-b]indol-2-yl)-(5-(trifluoromethyl)-1H-pyrazol-3-yl)methanone]
solubility kinetic at 24 h [1]: < 1 µM
half-life at 1 h, 4.6 µM [2]: 32 ± 1 min
dog LM_NADPH parent compound remaining at the last time point (in parentheses) [3]: 92%
half-life at 4.6 μM [3]: > 60 min
half-life at 1 h, 4.6 µM [4]: 53 ± 2 min
HepG2 (% survival) [5]: >80%

COc1cc(F)c2[nH]c3c(c2c1)CN(C(=O)c1cc(C(F)(F)F)[nH]n1)CC3 [Compound 25, (6-Fluoro-8-methoxy-1,3,4,5-tetrahydro-2H-pyrido[4,3-b]indol-2-yl)-(5-(trifluoromethyl)-1H-pyrazol-3-yl)methanone]
solubility kinetic at 24 h, 250 µM [1]: 2 ± 1 µM (≈ 0.765 µg/mL)
half-life at 1 h, 4.6 µM [2]: 20 ± 1 min
dog LM_NADPH parent compound remaining at the last time point (in parentheses) [3]: 90%
half-life at 4.6 μM [3]: > 60 min
half-life at 1 h, 4.6 µM [4]: 33 ± 1 min
HepG2 (% survival) [5]: >80%
